# Measured values published in patent publication US20190194179A1, “ANTIBIOTIC COMPOUNDS” (DISCUVA LTD., priority 2016, published 2019).
# Where a name gives a salt, the structure may show the parent alone.
# System: Neisseria gonorrhoeae
# Assay: EC50 determination: plate-based broth growth assay (absorbance at 600 nm) of Neisseria gonorrhoeae
# Assay type: cell-based
# Settings: absorbance 600 nm after 20 hours at 37° C./5% CO2, read-out: IC50 (Inhibitory concentration) against Neisseria gonorrhoeae
# Procedure, shortened: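 Mid-log culture diluted to ~10^5 cells/ml as inoculum and grown 20 hours at 37° C./5% CO2 across a 10-point compound dilution series. Growth read as absorbance at 600 nm; EC50 taken from transformed data as the concentration giving 50% response relative to no-compound controls.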
row,IC50 [nM],Structure (SMILES)
1,≤ 1000,"O=C(Nc1cccc(Cl)c1)c1csc(Nc2nc3cc(C(F)(F)F)ccc3o2)n1 [Example 10, N-(3-Chlorophenyl)-2-((5-(trifluoromethyl)benzo[d]oxazol-2-yl)amino)thiazole-4-carboxamide]"
2,≤ 100000,"Cn1c(Nc2nnco2)nc2ccc(Cl)cc21 [Example 92, N-(6-Chloro-1-methyl-1H-benzo[d]imidazol-2-yl)-1,3,4-oxadiazol-2-amine]"
3,≤ 10000,"CC(=O)N(C)Cc1nnc(Nc2nc3cc(C(F)(F)F)ccc3o2)o1 [Example 94, N-Methyl-N-((5-((5-(trifluoromethyl)benzo[d]oxazol-2-yl)amino)-1,3,4-oxadiazol-2-yl)methyl)acetamide]"
4,≤ 100,"Fc1cc2oc(Nc3nnco3)nc2cc1OC(F)(F)F [Example 207, 6-Fluoro-N-(1,3,4-oxadiazol-2-yl)-5-(trifluoromethoxy) benzo[d]ox-azol-2-amine]"
5,≤ 100,"FC(F)(F)c1ccc2oc(Nc3nnc(C4CC4)o3)nc2c1 [Example 103, N-(5-Cyclopropyl-1,3,4-oxadiazol-2-yl)-5-(trifluoromethyl)benzo[d]oxazol-2-amine]"
6,≤ 100,"Fc1cc2nc(Nc3nnco3)oc2cc1F [Example 48, 5,6-diFluoro-N-(1,3,4-oxadiazol-2-yl)benzo[d]oxazol-2-amine]"
7,≤ 1000,"O=C(NC1CC1)c1csc(Nc2nc3ccc(F)cc3o2)n1 [Example 19, N-Cyclopropyl-2-((6-fluorobenzo[d]oxazol-2-yl)amino)thiazole-4-carboxamide]"
8,≤ 1000,"Cn1cnc(Nc2nc3cc(C(F)(F)F)c(Cl)cc3o2)c1 [Example 140, 6-Chloro-N-(1-methyl-1H-imidazol-4-yl)-5-(trifluoromethyl)benzo[d]oxazol-2-amine]"
9,≤ 100000,"Cc1nnc(Nc2nc3cc(C(F)(F)F)c(Cl)cc3n2C)[nH]1 [Example 144, 6-Chloro-1-methyl-N-(5-methyl-4H-1,2,4-triazol-3-yl)-5-(trifluoromethyl)-1H-benzo[d]imidazol-2-amine]"
10,≤ 100,"CC(C)c1nnc(Nc2nc3ccc(Cl)cc3o2)o1 [Example 214, 6-Chloro-N-(5-isopropyl-1,3,4-oxadiazol-2-yl)benzo[d]oxa-zol-2-amine]"
11,≤ 1000,"O=C(NC1CC1)c1csc(Nc2nc3cc(Cl)ccc3o2)n1 [Example 17, 2-((5-Chlorobenzo[d]oxazol-2-yl)amino)-N-cyclopropylthiazole-4-carboxamide]"
12,≤ 1000,"NC(=O)c1csc(Nc2nc3ccc(Cl)cc3o2)n1 [Example 33, 2-((6-Chlorobenzo[d]oxazol-2-yl)amino)thiazole-4-carboxamide]"
13,≤ 1000,"Clc1cccc2nc(Nc3nnco3)oc12 [Example 57, 7-Chloro-N-(1,3,4-oxadiazol-2-yl)benzo[d]oxazol-2-amine]"
14,≤ 100000,"O=C(O)c1nc(Nc2nc3ccc(Cl)cc3o2)co1 [Example 182, 4-((6-chlorobenzo [d]oxazol-2-yl)amino)oxa-zole-2-carboxylic acid]"
15,≤ 1000,"FC(F)(F)c1ccc2oc(Nc3nc4ccccc4[nH]3)nc2c1 [Example 167, N-(1H-Benzo[d]imidazol-2-yl)-5-(trifluoromethyl) benzo[d]oxazol-2-amine]"
16,≤ 1000,"Clc1ccc2nc(Nc3nnco3)oc2c1 [Example 115, 6-Chloro-N-(1,3,4-oxadiazol-2-yl)benzo[d]oxazol-2-amine]"
17,≤ 10000,"CNCc1nnc(Nc2nc3cc(C(F)(F)F)ccc3o2)o1 [Example 93, N-(5-((Methylamino)methyl)-1,3,4-oxadiazol-2-yl)-5-(trifluoromethyl)benzo[d]oxazol-2-amine]"
18,≤ 10000,"O=[N+]([O-])c1ccc2nc(Nc3nnco3)oc2c1 [Example 186, 6-Nitro-N-(1,3,4-oxadiazol-2-yl)benzo[d]ox-azol-2-amine]"
19,≤ 1000,"Cc1nnc(Nc2nc3c(Cl)cccc3o2)o1 [Example 119, 4-Chloro-N-(5-methyl-1,3,4-oxadiazol-2-yl)benzo[d]oxazol-2-amine]"
20,≤ 10000,"Clc1ccc2nc(Nc3nnc(N4CCCC4)o3)oc2c1 [Example 198, 6-Chloro-N-(5-(pyrrolidin-1-yl)-1,3,4-oxadiazol-2-yl)benzo[d]oxa-zol-2-amine]"
21,≤ 1000,"CC(C)c1nnc(Nc2nc3cc(C(F)(F)F)ccc3o2)o1 [Example 108, N-(5-Isopropyl-1,3,4-oxadiazol-2-yl)-5-(trifluoromethyl)benzo[d]oxazol-2-amine]"
22,≤ 100,"Clc1cc(Cl)c2nc(Nc3nnco3)oc2c1 [Example 45, 4,6-Dichloro-N-(1,3,4-oxadiazol-2-yl)benzo[d]oxazol-2-amine]"
23,≤ 10000,"O=C(O)c1ccc2nc(Nc3nnco3)oc2c1 [Example 192, 2-((1,3,4-oxadiazol-2-yl)amino)benzo[d]oxazole-6-carboxylic acid]"
24,≤ 100,"FC(F)(F)c1cc2nc(Nc3nnc(CN4CCCC4)[nH]3)oc2cc1Cl [Example 137, 6-Chloro-N-(5-(pyrrolidin-1-ylmethyl)-4H-1,2,4-triazol-3-yl)-5-(trifluoromethyl)benzo[d]oxazol-2-amine]"

row,IC50 [nM],Structure (SMILES)
1,≤ 100,"Cc1nnc(Nc2nc3c(Cl)cc(Cl)cc3o2)o1 [Example 40, 4,6-Dichloro-N-(5-methyl-1,3,4-oxadiazol-2-yl)benzo[d]oxazol-2-amine]"
2,≤ 1000,"Fc1ccc2oc(Nc3nnco3)nc2c1 [Example 66, 5-Fluoro-N-(1,3,4-oxadiazol-2-yl)benzo[d]oxazol-2-amine]"
3,≤ 100,FC(F)(F)Oc1cc2oc(Nc3nnco3)nc2cc1Cl [Example 191]
4,≤ 1000,"CC1CCCN1Cc1nnc(Nc2nc3cc(C(F)(F)F)ccc3o2)o1 (stereo not drawn) [Example 73, N-(5-((2-Methylpyrrolidin-1-yl)methyl)-1,3,4-oxadiazol-2-yl)-5-(trifluoromethyl)benzo[d]oxazol-2-amine]"
5,≤ 10000,"CC(C)(C)c1csc(Nc2nc3cc(C(F)(F)F)ccc3o2)n1 [Example 13, N-(4-(tert-butyl)thiazol-2-yl)-5-(trifluoromethyl)benzo[d]oxazol-2-amine]"
6,≤ 1000,"Clc1ccc2[nH]c(Nc3nc4cnccc4o3)nc2c1 [Example 168, N-(5-Chloro-1H-benzo[d]imidazol-2-yl)oxazolo [4,5-c]pyridin-2-amine]"
7,≤ 100,"Clc1ccc2nc(Nc3nnc(CN4CCCC4)o3)oc2c1 [Example 77, 6-Chloro-N-(5-(pyrrolidin-1-ylmethyl)-1,3,4-oxadiazol-2-yl)benzo[d]oxazol-2-amine]"
8,≤ 1000,"Cc1nnc(Nc2nc3c(F)cccc3o2)o1 [Example 62, 4-Fluoro-N-(5-methyl-1,3,4-oxadiazol-2-yl)benzo[d]oxazol-2-amine]"
9,≤ 1000,"Cc1nc(Nc2nc3cc(C(F)(F)F)ccc3o2)oc1C [Example 113, N-(4,5-Dimethyloxazol-2-yl)-5-(trifluoromethyl)benzo[d]oxazol-2-amine]"
10,≤ 1000,"O=C(NC1CC1)c1csc(Nc2nc3ccccc3o2)n1 [Example 15, 2-(Benzo[d]oxazol-2-ylamino)-N-cyclopropylthiazole-4-carboxamide]"
11,≤ 100000,"CN(c1nc2ccccc2o1)c1nc2cnc(C(F)(F)F)cc2o1 [Example 169, N-(benzo[d]oxazol-2-yl)-N-methyl-6-(trifluoromethyl)oxazolo[4,5-c]pyridin-2-amine]"
12,≤ 100,"N#Cc1nnc(Nc2nc3ccc(Cl)cc3o2)o1 [Example 217, 5-((6-Chlorobenzo[d]oxazol-2-yl)amino)-1,3,4-oxadiazole-2-carbonitrile]"
13,≤ 100,"Cc1cc(Nc2nc3cc(C(F)(F)F)c(Cl)cc3o2)no1 [Example 42, 6-Chloro-N-(5-methylisoxazol-3-yl)-5-(trifluoromethyl)benzo[d]oxazol-2-amine]"
14,≤ 1000,"FC(F)(F)c1ccc2nc(Nc3ncc(N4CCNCC4)s3)oc2c1 [Example 49, N-(5-(Piperazin-1-yl)thiazol-2-yl)-6-(trifluoromethyl)benzo[d]oxazol-2-amine hydrochloride]"
15,≤ 1000,"CCOC(=O)c1noc(Nc2nc3ccc(Cl)cc3o2)n1 [Example 216, Ethyl 5-((6-chlorobenzo[d]oxazol-2-yl)amino)-1,2,4-oxadiazole-3-carboxylate]"
16,≤ 1000,"Cn1c(Nc2nnco2)nc2cc(C(F)(F)F)ccc21 [Example 69, N-(1-methyl-5-(trifluoromethyl)-1H-benzo[d]imidazol-2-yl)-1,3,4-oxadiazol-2-amine]"
17,≤ 1000,"COc1cc2nc(Nc3nnco3)oc2cc1F [Example 209, 6-Fluoro-5-methoxy-N-(1,3,4-oxadiazol-2-yl)benzo[d]oxa-zol-2-amine]"
18,≤ 200000,"NC(=O)c1nnc(Nc2nc3cc(F)ccc3o2)o1 [Example 202, 5-((5-Fluorobenzo[d]oxazol-2-yl)amino)-1,3,4-oxadiazole-2-carboxamide]"
19,≤ 100000,"O=C(O)c1nnc(Nc2nc3ccc(F)cc3o2)o1 [Example 223, Sodium 5-((6-fluorobenzo[d]oxazol-2-yl)amino)-1,3,4-oxadiazole-2-carboxylate]"
20,≤ 100,"Clc1ccc2nc(Nc3nnc(C4CCCO4)o3)oc2c1 (stereo not drawn) [Example 213, 6-Chloro-N-(5-(tetrahydrofuran-2-yl)-1,3,4-oxadiazol-2-yl)benzo[d]oxa-zol-2-amine]"
21,≤ 1000,"FC(F)(F)c1ccc2nc(Nc3ncc(N4CCOCC4)s3)oc2c1 [Example 27, N-(5-Morpholinothiazol-2-yl)-6-(trifluoromethyl)benzo[d]oxazol-2-amine]"
22,≤ 100000,"Fc1ccc2oc(Nc3nc4cnccc4o3)nc2c1 [Example 160, N-(5-Fluorobenzo[d]oxazol-2-yl)oxazolo[4,5-c]pyridin-2-amine]"
23,≤ 1000,"CN1CCN(c2cnc(Nc3nc4cc(C(F)(F)F)ccc4o3)s2)CC1 [Example 32, N-(5-(4-Methylpiperazin-1-yl)thiazol-2-yl)-5-(trifluoromethyl)benzo[d]oxazol-2-amine]"

row,Structure (SMILES),IC50 [nM]
1,"Cc1nnc(Nc2nc3cc(Cl)ccc3o2)o1 [Example 50, 5-Chloro-N-(5-methyl-1,3,4-oxadiazol-2-yl)benzo[d]oxazol-2-amine]",≤ 100
